For one assay, the target named is TYK2 (Homo sapiens (Human), UniProt P29597). Put plainly: TYK2 Radioactive Kinase Assay. It is filed as biochemical. The settings on record: compound at 10 μM; peptide substrate […]; read-out: TYK2 (% Inhibition at 10 μM).
Another assay concerns the target JAK2 (Homo sapiens (Human), UniProt O60674). Put plainly: JAK2 Radioactive Kinase Assay. It is filed as biochemical. The settings on record: compound at 10 μM, substrate poly[Glu:Tyr] (4:1); for inhibition at 10 µM: read-out: JAK2 (% Inhibition at 10 μM). On the procedure: Peptide substrate, [[…]], (20 μM) was prepared in reaction buffer (20 mM Hepes pH 7.5, 10 mM MgCl2, 1 mM EGTA, 0.02% Brij35, 0.02 mg/mL BSA, 0.1 mM […], 2 mM DTT, 1% DMSO. TYK2 (Invitrogen) kinase was added, followed by compounds in DMSO. 33PATP was added to initiate the reaction in ATP at […]. Kinase reaction was incubated for 120 min at room temp and reactions were spotted onto P^81 ion exchange paper (Whatman #3698-915), and then washed extensively in 0.75% phosphoric acid, prior to reading the radioactivity counts. For JAK2 (Invitrogen) kinase assay the peptide substrate poly[Glu:Tyr] (4:1), 0.2 mg/mL was used, in the reaction carried out the same as for TYK2.

Assay [1] concerns the target human TYK2 (JH2domain-pseudokinase) (Homo sapiens (Human), UniProt P29597). Put plainly: TYK2 JH2 Domain Binding Assay (KINOMEscan). The settings on record: 11-point 3-fold dilution, top concentration 30,000 nM, duplicate; read-out: hTYK2_JH2_Binding (Kd; nM). An outline of the steps:
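KINOMEscan competition binding: HEK293-expressed NFkB-fused TYK2 JH2 (G556–D888), DNA-tagged, against immobilized ligand beads, 1 h shaking at room temperature, 0.9% DMSO. Bound kinase quantified by qPCR.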

For assay [2], the system named is IL-12 induced STAT4 phosphorlyation mediated by TYK2/JAK2. Kind of assay: IL-12 Induced pSTAT4 in Human PBMC. The class given is cell-based. The settings on record: 1.7 ng/mL IL-12 for 30 minutes. An outline of the steps: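 Thawed human PBMC pre-incubated with compound 1 hr at 37° C (0.1% DMSO final), then stimulated 30 minutes with IL-12 at 1.7 ng/mL final. pSTAT4 and total STAT4 measured in cell lysates with MSD reagents.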

Chain of JAK2 (O60674 whole entry): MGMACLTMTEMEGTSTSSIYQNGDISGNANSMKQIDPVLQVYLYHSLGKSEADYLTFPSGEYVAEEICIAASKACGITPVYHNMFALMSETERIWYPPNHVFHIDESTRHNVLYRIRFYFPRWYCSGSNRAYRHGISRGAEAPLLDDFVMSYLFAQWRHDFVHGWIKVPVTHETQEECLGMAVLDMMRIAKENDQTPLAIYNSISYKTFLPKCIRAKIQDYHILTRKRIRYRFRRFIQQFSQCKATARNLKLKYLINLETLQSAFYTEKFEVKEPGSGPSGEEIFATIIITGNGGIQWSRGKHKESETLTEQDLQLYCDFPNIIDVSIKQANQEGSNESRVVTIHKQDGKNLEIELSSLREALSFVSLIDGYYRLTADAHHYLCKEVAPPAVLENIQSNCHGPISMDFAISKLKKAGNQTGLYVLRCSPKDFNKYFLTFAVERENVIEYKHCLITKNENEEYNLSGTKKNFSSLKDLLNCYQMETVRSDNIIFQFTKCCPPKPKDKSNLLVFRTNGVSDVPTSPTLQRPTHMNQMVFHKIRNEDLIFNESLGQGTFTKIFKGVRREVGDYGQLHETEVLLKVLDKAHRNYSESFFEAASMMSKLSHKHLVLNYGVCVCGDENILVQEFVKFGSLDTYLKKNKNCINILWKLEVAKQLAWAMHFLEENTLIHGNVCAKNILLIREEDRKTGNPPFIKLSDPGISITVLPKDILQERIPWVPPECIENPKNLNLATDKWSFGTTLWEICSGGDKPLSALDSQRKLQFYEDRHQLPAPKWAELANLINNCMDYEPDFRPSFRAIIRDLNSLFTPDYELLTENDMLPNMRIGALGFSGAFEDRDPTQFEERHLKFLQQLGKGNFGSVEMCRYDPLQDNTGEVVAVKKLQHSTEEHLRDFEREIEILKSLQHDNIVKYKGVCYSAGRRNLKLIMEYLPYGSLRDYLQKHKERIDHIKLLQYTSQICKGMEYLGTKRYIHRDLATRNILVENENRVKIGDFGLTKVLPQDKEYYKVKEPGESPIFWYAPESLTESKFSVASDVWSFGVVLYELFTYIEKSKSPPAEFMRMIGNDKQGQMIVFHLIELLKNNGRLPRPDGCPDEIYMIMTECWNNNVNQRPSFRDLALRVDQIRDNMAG
Chain of TYK2 (P29597 whole entry): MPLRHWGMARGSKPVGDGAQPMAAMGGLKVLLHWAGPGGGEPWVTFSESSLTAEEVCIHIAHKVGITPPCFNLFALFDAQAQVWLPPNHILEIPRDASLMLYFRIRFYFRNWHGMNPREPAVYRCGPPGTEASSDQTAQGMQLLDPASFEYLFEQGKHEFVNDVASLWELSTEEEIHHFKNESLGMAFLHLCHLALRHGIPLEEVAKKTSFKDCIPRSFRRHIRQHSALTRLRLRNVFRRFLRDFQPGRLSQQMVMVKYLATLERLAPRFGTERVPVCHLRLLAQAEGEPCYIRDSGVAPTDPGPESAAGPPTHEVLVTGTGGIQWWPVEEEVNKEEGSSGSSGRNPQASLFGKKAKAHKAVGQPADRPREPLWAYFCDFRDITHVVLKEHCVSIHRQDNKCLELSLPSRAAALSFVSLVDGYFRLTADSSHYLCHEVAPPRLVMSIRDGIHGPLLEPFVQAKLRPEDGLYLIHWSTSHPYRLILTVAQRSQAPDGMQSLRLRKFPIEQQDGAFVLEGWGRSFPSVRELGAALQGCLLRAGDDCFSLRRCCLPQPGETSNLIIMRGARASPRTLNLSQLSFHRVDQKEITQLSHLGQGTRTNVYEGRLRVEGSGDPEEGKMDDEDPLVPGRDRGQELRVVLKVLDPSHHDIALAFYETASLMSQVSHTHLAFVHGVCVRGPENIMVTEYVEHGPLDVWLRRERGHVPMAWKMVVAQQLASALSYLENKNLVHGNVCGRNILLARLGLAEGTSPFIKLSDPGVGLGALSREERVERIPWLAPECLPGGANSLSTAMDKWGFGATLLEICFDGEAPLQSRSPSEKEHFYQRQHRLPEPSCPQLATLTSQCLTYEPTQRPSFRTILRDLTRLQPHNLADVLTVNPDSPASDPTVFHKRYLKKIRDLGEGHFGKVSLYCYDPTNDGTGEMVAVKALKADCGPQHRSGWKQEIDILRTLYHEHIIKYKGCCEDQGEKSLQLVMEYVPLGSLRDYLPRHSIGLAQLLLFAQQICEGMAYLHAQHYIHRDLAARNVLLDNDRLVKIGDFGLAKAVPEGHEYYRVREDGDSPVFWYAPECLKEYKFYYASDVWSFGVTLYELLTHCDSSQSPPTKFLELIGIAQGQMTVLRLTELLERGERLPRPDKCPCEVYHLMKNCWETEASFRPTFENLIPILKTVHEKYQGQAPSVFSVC
Chain of human TYK2 (JH2domain-pseudokinase) (P29597 556-888): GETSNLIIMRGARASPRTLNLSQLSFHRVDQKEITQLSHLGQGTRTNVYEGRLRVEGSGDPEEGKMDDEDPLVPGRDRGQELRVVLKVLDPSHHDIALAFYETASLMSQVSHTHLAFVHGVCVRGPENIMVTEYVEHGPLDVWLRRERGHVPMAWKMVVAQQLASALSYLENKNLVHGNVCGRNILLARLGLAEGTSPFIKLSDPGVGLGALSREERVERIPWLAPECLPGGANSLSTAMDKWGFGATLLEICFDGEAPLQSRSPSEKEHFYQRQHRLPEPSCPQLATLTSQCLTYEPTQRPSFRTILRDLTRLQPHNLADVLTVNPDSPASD

For the compound `CNc1cc(Nc2cccn(C3CC(F)(F)C3)c2=O)nc2c(C(=O)N[C@@H]3CCC[C@@H](O)C3)cnn12` [Compound I-62, 5-((1-(3,3-Difluorocyclobutyl)-2-oxo-1,2-dihydropyridin-3-yl)amino)-N-((1R,3R)-3-hydroxycyclohexyl)-7-(methylamino)pyrazolo[1,5-a]pyrimidine-3-carboxamide], the inhibition at 10 µM at TYK2 and at JAK2 was < 50% in each case. For the compound `CNc1cc(Nc2cccn(C3CC(F)(F)C3)c2=O)nc2c(C(=O)N[C@H]3CCC[C@H](O)C3)cnn12` [Compound I-63, 5-((1-(3,3-Difluorocyclobutyl)-2-oxo-1,2-dihydropyridin-3-yl)amino)-N-((1S,3S)-3-hydroxycyclohexyl)-7-(methylamino)pyrazolo[1,5-a]pyrimidine-3-carboxamide], the inhibition at 10 µM at TYK2 and at JAK2 was < 50% throughout. In the case of `CNc1cc(Nc2cccn([C@H]3C[C@H](F)C3)c2=O)nc2c(C(=O)NC3CC[C@@H](OC)C3)cnn12` (mixture of isomers) [Compound I-66, 5-((1-((1r,3R)-3-Fluorocyclobutyl)-2-oxo-1,2-dihydropyridin-3-yl)amino)-N-(3-methoxycyclopentyl)-7-(methylamino)pyrazolo[1,5-a]pyrimidine-3-carboxamide], the inhibition at 10 µM at TYK2 and on JAK2 was < 50% throughout. Regarding `CNc1cc(Nc2cccn(C3CCC[C@@](C)(O)C3)c2=O)nc2c(C(=O)N[C@@H]3C[C@@H]3F)cnn12` (stereo partly drawn) [Compound I-6, N-((1R,2S)-2-Fluorocyclopropyl)-5-((1-(3-hydroxy-3-methylcyclohexyl)-2-oxo-1,2-dihydropyridin-3-yl)amino)-7-(methylamino)pyrazol[1,5-a]pyrimidine-3-carboxamide], the inhibition at 10 µM on TYK2 and on JAK2 was < 50% in each case. With `O=C(N[C@@H]1CCC1(F)F)c1cnn2c3c(c(Nc4cccn([C@H]5[C@@H]6COC[C@@H]65)c4=O)nc12)OCCN3` [Compound I-769], the Kd in assay [1] was < 0.2 nM. Moreover, the IC50 in assay [2] was < 0.1 µM. Regarding `CNc1cc(Nc2cccn([C@H]3CC[C@H](OC)CC3)c2=O)nc2c(C(=O)N[C@@H]3CC[C@@H](OC)C3)cnn12` [Compound I-69, 5-((1-((1r,4R)-4-Methoxycyclohexyl)-2-oxo-1,2-dihydropyridin-3-yl)amino)-N-((1R,3R)-3-methoxycyclopentyl)-7-(methylamino)pyrazolo[1,5-a]pyrimidine-3-carboxamide], the “JAK2 (% Inhibition at 10 μM)” value at JAK2 is “A (percent inhibition at 10 μM lower than 50)”. In the case of `CNc1cc(-c2cn(C3COC3)c3ncccc23)nc2c(C(=O)N[C@H]3CC[C@@H]3F)cnn12` [Compound I-508], the Kd in assay [1] was < 0.2 nM. Further, the IC50 in assay [2] is < 0.1 µM. In the same order, the values of `CNc1cc(Nc2cccn([C@H]3[C@@H]4COC[C@@H]43)c2=O)nc2c(C(=O)NC3CCC3)cnn12` [Compound I-142] are < 0.2 nM and < 0.1 µM. Consider `CO[C@@H]1CCC1NC(=O)c1cnn2c3c(c(Nc4cccn([C@H]5[C@@H]6COC[C@@H]65)c4=O)nc12)OCCN3` (some centres unmarked) [Compound I-762], for which the Kd in assay [1] is < 0.2 nM. Besides, the IC50 in assay [2] was < 0.1 µM.

As for `O=C(NC1CC[C@@H]1F)c1cnn2c3c(c(-c4cn(C5COC5)c5ncccc45)nc12)OCCN3` (some centres unmarked) [Compound I-774], the Kd in assay [1] was < 0.2 nM. Besides, the IC50 in assay [2] is < 0.1 µM.

For `CNc1cc(Nc2cccn(C3COC3)c2=O)nc2c(C(=O)NC3CC[C@@H]3F)cnn12` (some centres unmarked) [Compound I-163], in assay [1], the Kd is < 0.2 nM. The IC50 in assay [2] was < 0.1 µM.

Turning to `CNc1cc(-c2cnc3n([C@H]4CCOC[C@@H]4O)cccc2-3)nc2c(C(=O)NC3CC3)cnn12` [Compound I-819], in assay [1], the Kd is < 0.2 nM. For the same compound, in assay [2], the IC50 is < 0.1 µM. The matching figures for `CNc1ccc(-c2cc(NC)n3ncc(C(=O)N[C@@H]4CC[C@H]4OC)c3n2)n2ccnc12` [Compound I-490]: < 0.2 nM and < 0.1 µM. In the same order, the values of `CNc1cc(-c2cn([C@@H]3COC[C@H]3O)c3ncccc23)nc2c(C(=O)N[C@@H]3C[C@@H]3F)cnn12` [Compound I-502] are < 0.2 nM and 0.1 to 0.5 µM.

Take `O=C(N[C@@H]1CCC1(F)F)c1cnn2c3c(c(-c4cn(C5COC5)c5ncccc45)nc12)OCCN3` [Compound I-772]: the Kd in assay [1] is < 0.2 nM. Further, the IC50 in assay [2] was < 0.1 µM. The matching figures for `CNc1cc(Nc2cccn(-c3ocnc3C)c2=O)nc2c(C(=O)N[C@H]3CC[C@@H]3F)cnn12` [Compound I-186]: < 0.2 nM and < 0.1 µM. In the case of `CNc1cc(-c2cnc3n([C@@H]4CCOC[C@H]4O)cccc2-3)nc2c(C(=O)N[C@@H]3C[C@@H]3F)cnn12` [Compound I-824], the Kd in assay [1] is < 0.2 nM. Further, the IC50 in assay [2] is < 0.1 µM.

For `CNc1cc(Nc2cccn(C3CCOCC3)c2=O)nc2c(C(=O)NC3CCC3)cnn12` [Compound I-143], the Kd in assay [1] is < 0.2 nM. Further, the IC50 in assay [2] is < 0.1 µM.

In the case of `O=C(N[C@H]1CC[C@@H]1F)c1cnn2c3c(c(-c4cn([C@H]5C[C@H](O)C5)c5ncccc45)nc12)OCCN3` [Compound I-757], the Kd in assay [1] was < 0.2 nM. In assay [2], the IC50 was < 0.1 µM. `CNc1cc(Nc2cccn([C@H]3CC[C@H](OC)CC3)c2=O)nc2c(C(=O)N[C@H]3CC[C@H](OC)C3)cnn12` [Compound I-70, 5-((1-((1 r,4S)-4-Methoxycyclohexyl)-2-oxo-1,2-dihydropyridin-3-yl)amino)-N-((1S,3S)-3-methoxycyclopentyl)-7-(methylamino)pyrazolo[1,5-a]pyrimidine-3-carboxamide]: the “JAK2 (% Inhibition at 10 μM)” value on JAK2 is “A (percent inhibition at 10 μM lower than 50)”.

As to `CNc1cc(-c2cnc3n([C@@H]4CCOC[C@H]4O)cccc2-3)nc2c(C(=O)NC3CC3)cnn12` [Compound I-818, N-Cyclopropyl-5-(7-((3S,4R)-3-hydroxytetrahydro-2H-pyran-4-yl)-7H-pyrrolo[2,3-b]pyridin-3-yl)-7-(methylamino)pyrazolo[1,5-a]pyrimidine-3-carboxamide], in assay [1], the equilibrium dissociation constant (Kd) is < 0.2 nM. In addition, the IC50 in assay [2] (0.5 h) was < 0.1 µM. As to `CC(C)n1cc(-c2nc3c(C(=O)N[C@H]4CC[C@H]4O)cnn3c3c2OCCN3)c2cccnc21` [Compound I-754], the Kd in assay [1] was < 0.2 nM. In assay [2], the IC50 was < 0.1 µM. Regarding `CNc1cc(Nc2cccn([C@H]3[C@@H]4COC[C@@H]43)c2=O)nc2c(C(=O)N[C@H]3CCC3(F)F)cnn12` [Compound I-307], the Kd in assay [1] is < 0.2 nM. The half-inhibitory concentration (IC50) in assay [2] is < 0.1 µM. Consider `CNc1cc(Nc2cccn([C@H]3CC[C@H](OC)CC3)c2=O)nc2c(C(=O)N[C@@H]3C[C@H]3OC)cnn12` [Compound I-31, 5-((1-((1r,4R)-4-Methoxycyclohexyl)-2-oxo-1,2-dihydropyridin-3-yl)amino)-N-((1R,2R)-2-methoxycyclopropyl)-7-(methylamino)pyrazolo[1,5-a]pyrimidine-3-carboxamide], for which the Kd in assay [1] is < 0.2 nM. Also, the IC50 in assay [2] was < 0.1 µM.

`CNc1cc(-c2cn([C@H]3C[C@@H](O)C3)c3ncccc23)nc2c(C(=O)NC3CC3)cnn12` [Compound I-495]: the Kd in assay [1] is < 0.2 nM. For the same compound, the IC50 in assay [2] was < 0.1 µM. For the compound `CNc1cc(-c2cnc3n(C4CCOCC4)cccc2-3)nc2c(C(=O)NC3CC[C@@H]3OC)cnn12` (stereo in doubt) [Compound I-985, N-(2-methoxycyclobutyl)-7-(methylamino)-5-(7-(tetrahydro-2H-pyran-4-yl)-7H-pyrrolo[2,3-b]pyridin-3-yl)pyrazolo[1,5-a]pyrimidine-3-carboxamide], the Kd in assay [1] is < 0.2 nM. The IC50 in assay [2] (0.5 h) is < 0.1 µM. In the case of `CNc1ccc(-c2cc(NC)n3ncc(C(=O)NC4CC[C@@H]4OC)c3n2)n2ccnc12` (some centres unmarked) [Compound I-488], the Kd in assay [1] is < 0.2 nM. In addition, the IC50 in assay [2] was < 0.1 µM.

As for `CNc1cc(Nc2cccn([C@H]3CC[C@H](OC)CC3)c2=O)nc2c(C(=O)N[C@H]3C[C@@H]3OC)cnn12` [Compound I-32, 5-((1-((1r,4S)-4-Methoxycyclohexyl)-2-oxo-1,2-dihydropyridin-3-yl)amino)-N-((1S,2S)-2-methoxycyclopropyl)-7-(methylamino)pyrazolo[1,5-a]pyrimidine-3-carboxamide], the dissociation constant (Kd) in assay [1] was < 0.2 nM. Also, the IC50 in assay [2] is < 0.1 µM. The matching figures for `CNc1cc(Nc2cccn([C@@H]3C[C@H]3F)c2=O)nc2c(C(=O)N[C@@H]3CC[C@H]3OC)cnn12` [Compound I-53, 5-((1-((1R,2R)-2-Fluorocyclopropyl)-2-oxo-1,2-dihydropyridin-3-γ1)amino)-N-((1R,2R)-2-methoxycyclobutyl)-7-(methylamino)pyrazolo[1,5-a]pyrimidine-3-carboxamide]: < 0.2 nM and < 0.1 µM.

By inhibition is commonly meant the drop in the measured response relative to a control, in per cent. Usually Kd stands for the free concentration of one partner at which half of the binding sites on the other are occupied at equilibrium, for simple one-to-one binding. Usually IC50 stands for the midpoint of a concentration-inhibition curve. The low end stands for higher potency, the high end for lower potency.

Source of the values: patent publication US11414431B2, “Substituted pyrazolo[1,5-a]pyrimidines as TYK2 inhibitors” (Nimbus Lakshmi, Inc., priority 2018, dated 2022).
